Reference: the CheMixHub ionic liquid set

Assay: xn = mol fraction of the nth substance listed

C[NH+](C)C.O=S(=O)([N-]S(=O)(=O)C(F)(F)F)C(F)(F)F + O=C1CCCO1
101 kPa
Settings | electrical conductivity [S/m] | viscosity [mPa·s]
298.15 K, x1 = 0.0005 | 0.043 | –
298.15 K, x1 = 0.0008 | 0.059 | –
298.15 K, x2 = 0.5239 | 1.89 | –
303.15 K, x2 = 0.8088 | – | 3.08
303.15 K, x2 = 0.8803 | – | 2.34
313.15 K, x2 = 0.672 | – | 3.62
313.15 K, x2 = 0.8803 | – | 1.86
333.15 K, x2 = 0.7428 | – | 1.87
343.15 K, x2 = 0.8803 | – | 0.98

CCCC[n+]1ccn(C)c1.O=[N+]([O-])[O-] + O
Settings | viscosity [mPa·s]
295.15 K, 101 kPa, x2 = 0.1659 | 73
308 K, 100 kPa, x1 = 0.4463 | 14.67
308 K, 100 kPa, x1 = 0.6298 | 29.49
313 K, 100 kPa, x1 = 0.05634 | 1.464
313 K, 100 kPa, x1 = 0.08219 | 2.196
313 K, 100 kPa, x1 = 0.2637 | 6.31

CC[n+]1ccn(C)c1.F[P-](F)(F)(F)(F)F + CC(C)[C@H](N)C(=O)O + O
100 kPa
Settings | electrical conductivity, 298.15 K [S/m] | electrical conductivity, 303.15 K [S/m] | electrical conductivity, 308.15 K [S/m] | viscosity, 298.15 K [mPa·s] | viscosity, 303.15 K [mPa·s] | viscosity, 308.15 K [mPa·s]
x2 = 0.0001802, x1 = 1.802e-05 | 0.0115 | 0.0132 | 0.0158 | 0.924 | 0.855 | 0.783
x2 = 0.0001803, x1 = 5.405e-05 | 0.0309 | 0.0338 | 0.0369 | 0.939 | 0.861 | 0.788
x2 = 0.0001804, x1 = 9.008e-05 | 0.0452 | 0.0507 | 0.0552 | 0.954 | 0.865 | 0.792
x2 = 0.0004522, x1 = 1.801e-05 | 0.0121 | 0.0136 | 0.0156 | 0.93 | 0.862 | 0.79
x2 = 0.0004524, x1 = 5.403e-05 | 0.0301 | 0.0329 | 0.0366 | 0.946 | 0.868 | 0.795
x2 = 0.0004526, x1 = 9.005e-05 | 0.046 | 0.0507 | 0.0551 | 0.963 | 0.876 | 0.801
x2 = 0.0007258, x1 = 1.801e-05 | 0.0124 | 0.0141 | 0.016 | 0.936 | 0.869 | 0.797
x2 = 0.0007262, x1 = 5.402e-05 | 0.0308 | 0.0336 | 0.0361 | 0.953 | 0.875 | 0.802
x2 = 0.0007265, x1 = 9.003e-05 | 0.0494 | 0.0548 | 0.0593 | 0.97 | 0.884 | 0.808
x2 = 0.0009976, x1 = 1.8e-05 | 0.0136 | 0.015 | 0.0177 | 0.942 | 0.876 | 0.803
x2 = 0.000998, x1 = 5.4e-05 | 0.0304 | 0.0333 | 0.0354 | 0.96 | 0.883 | 0.811
x2 = 0.0009985, x1 = 9e-05 | 0.0457 | 0.051 | 0.0553 | 0.979 | 0.893 | 0.818
x2 = 0.001273, x1 = 1.8e-05 | 0.0147 | 0.0167 | 0.0199 | 0.948 | 0.882 | 0.811
x2 = 0.001273, x1 = 5.399e-05 | 0.0323 | 0.0341 | 0.0377 | 0.969 | 0.89 | 0.819
x2 = 0.001274, x1 = 8.998e-05 | 0.0487 | 0.0538 | 0.0594 | 0.988 | 0.899 | 0.826
x2 = 0.001546, x1 = 1.799e-05 | 0.0161 | 0.0182 | 0.0218 | 0.954 | 0.888 | 0.818
x2 = 0.001547, x1 = 5.397e-05 | 0.0327 | 0.0343 | 0.0383 | 0.976 | 0.897 | 0.827
x2 = 0.001547, x1 = 8.995e-05 | 0.0455 | 0.0512 | 0.0549 | 0.996 | 0.908 | 0.833

CC[N+]1(C)CCCC1.COP(=O)([O-])OC + CCO
100 kPa
Settings | viscosity [mPa·s]
293.15 K, x1 = 0.0534 | 2.2
293.15 K, x1 = 0.1535 | 5.03
298.15 K, x1 = 0.1535 | 4.5
298.15 K, x1 = 0.306 | 11.71
303.15 K, x1 = 0.1535 | 4.05
303.15 K, x1 = 1 | 123.5
308.15 K, x1 = 0.5052 | 20.8
308.15 K, x1 = 0.6938 | 40.6
308.15 K, x1 = 1 | 93.5
318.15 K, x1 = 0.1054 | 2.13
323.15 K, x1 = 0.0534 | 1.37
323.15 K, x1 = 0.1535 | 2.82
323.15 K, x1 = 0.2015 | 3.64
323.15 K, x1 = 0.6938 | 22.8
323.15 K, x1 = 0.8049 | 30.6
328.15 K, x1 = 0.1054 | 1.84
328.15 K, x1 = 0.2015 | 3.34
328.15 K, x1 = 0.6022 | 14.74
328.15 K, x1 = 0.8049 | 24.8
333.15 K, x1 = 0.2015 | 3.05
338.15 K, x1 = 0.0534 | 1.1
338.15 K, x1 = 0.9073 | 20.5
338.15 K, x1 = 1 | 24

CC(=O)[O-].Cn1cc[nH+]c1 + CCCC[N+]1(C)CCCC1.O=S(=O)([N-]S(=O)(=O)C(F)(F)F)C(F)(F)F
298.15 K, 100 kPa
Settings | viscosity [mPa·s]
x1 = 0.19 | 52.7
x1 = 0.5 | 26.9
x1 = 1 | 6.22
